Laboratory results published in ChEMBL document CHEMBL3272293, “Use of distribution coefficients in quantitative structure-activity relationships” (J Med Chem, 1977).

Experiments:
[1] = Octanol-aqueous phase distribution coefficient, log D of the compound at pH 7; type: physicochemical
[2] = Octanol-aqueous phase distribution coefficient, log D of the compound at pH 8; type: physicochemical
[3] = Uncoupling of oxidative phosphorylation in rat liver mitochondria at pH 5 relative to control; type: functional
[4] = Uncoupling of oxidative phosphorylation in rat liver mitochondria at pH 6 relative to control; type: functional
[5] = Uncoupling of oxidative phosphorylation in rat liver mitochondria at pH 7 relative to control; type: functional
[6] = Uncoupling of oxidative phosphorylation in rat liver mitochondria at pH 8 relative to control; type: functional
[7] = Octanol-aqueous phase distribution coefficient, log D of the compound at pH 5; type: physicochemical
[8] = Octanol-aqueous phase distribution coefficient, log D of the compound at pH 6; type: physicochemical
physchem [9] = conditions: octanol/aqueous phase
Description: Octanol-aqueous phase partition coefficient, log P of the compound

physchem [10] = assay: physchem
Neuron = assay: Increase in membrane potential in mollusc neurons assessed as conductance of potassium at pH 7.8 relative to salicylic acid; type: functional, Mollusca
[11] = octanol/water
physchem [12] = conditions: octanol/water
Description: (§1) Octanol-water partition coefficient, log P of the compound

physchem [13] = conditions: pH 7.8
Description: Dissociation constant, pKa of the compound at pH 7.8

physchem [14] = conditions: octanol/aqueous phase; remark: listed apart in the source
Colon = assay: Drug absorption in anesthetized rat colon at pH 6.8; type: ADME, tissue-based; conditions: in vivo
Small intestine = assay: Drug absorption in rat small intestine; type: ADME, tissue-based; conditions: in vivo
[15] = Dissociation constant, pKa of the compound at pH 5.3; type: physicochemical
physchem [16] = conditions: pH 6.8
Description: Dissociation constant, pKa of the compound at pH 6.8

[17] = Octanol-aqueous phase […] of the compound at pH 7.10; type: physicochemical; conditions: pH 7.1
[18] = Dissociation constant, pKa of the compound by titrimetric analysis; type: physicochemical
[19] = octanol/water; remark: listed apart in the source
Description: as §1

SMILES | pKa (physchem [10]) | fold change (FC) (Neuron) | logP (physchem [12]) | pKa (physchem [13]) | logD (physchem [14]) | log%Abs (Colon) | further results
CC(C)CCc1cc([N+](=O)[O-])c(O)c([N+](=O)[O-])c1 | 4.1 |  |  |  |  |  | logD [1]: 0.92; logD [2]: -0.08; fold change (FC) [3]: 5.5; fold change (FC) [4]: 5.42; fold change (FC) [5]: 5.18; fold change (FC) [6]: 4.92; logD [7]: 2.82; logD [8]: 1.92; logP (physchem [9]): 3.82
O=C(O)c1cccc(Br)c1 |  | 0.48 | 2.84 | 3.94 |  |  | logD [11]: -1.1
O=C(O)c1c(O)cccc1O | 2.7 | 0.18 | 2.2 | 5.1 | -2.9 |  | 
O=C(O)c1ccc([N+](=O)[O-])cc1 [4-NITROBENZOIC ACID] | 3.41 | -0.52 | 1.89 | 4.39 |  |  | logD [11]: -2.5
CCCCC1C(=O)N(c2ccccc2)N(c2ccccc2)C1=O [PHENYLBUTAZONE] |  |  |  |  |  | 1.58 | 
C=C[C@H]1C[N@@]2CC[C@H]1C[C@H]2[C@H](O)c1ccnc2ccc(OC)cc12 [QUININE] |  |  |  |  |  | 1.3 | log%Abs (Small intestine): 1.18
O=C(O)c1cc(O)ccc1O [GENTISIC ACID] |  | -0.7 |  | 4.83 |  |  | 
O=C(O)c1ccc(Br)cc1 | 3.98 | 0.4 | 2.86 | 3.82 |  |  | logD [11]: -0.96
Nc1ccccc1 [ANILINE] |  |  |  |  | 0.82 | 1.64 | log%Abs (Small intestine): 1.73
O=C(O)c1ccccc1O [SALICYLIC ACID] |  |  | 2.21 |  |  | 1.08 | logD [11]: -2.62
O=C(O)c1ccccc1Cl |  | -0.7 | 1.98 | 4.88 |  |  | logD [11]: -2.9
O=C(O)c1cccc(O)c1 [3-HYDROXYBENZOIC ACID] |  | -1 | 1.5 | 3.74 |  |  | logD [11]: -2.24
O=C(O)c1ccc(Cl)c(Cl)c1 | 3.66 | 0.93 | 3.46 | 4.14 |  |  | logD [11]: -0.68
CC(=O)Nc1ccccc1 [ACETANILIDE] |  |  |  |  | 1.16 | 1.56 | pKa [15]: 5; log%Abs (Small intestine): 1.62; pKa (physchem [16]): 6.5
CN1CC[C@]23CCCC[C@H]2[C@H]1Cc1ccc(O)cc13 [LEVORPHANOL] |  |  |  |  | 0.02 | 1.11 | logD [17]: 3.02; pKa [18]: 3
CC(C)CCCCCc1cc([N+](=O)[O-])c(O)c([N+](=O)[O-])c1 | 4.1 |  |  |  |  |  | logD [1]: 2.42; logD [2]: 1.42; fold change (FC) [3]: 6.08; fold change (FC) [4]: 5.89; fold change (FC) [5]: 5.64; fold change (FC) [6]: 5.41; logD [7]: 4.32; logD [8]: 3.42; logP (physchem [9]): 5.32
O=C(O)c1cc(I)cc(I)c1O | 2.33 | 2 | 4.78 | 5.47 | -0.69 |  | 
O=C(O)c1cccc(Cl)c1 |  | 0.18 | 2.68 | 3.98 |  |  | logD [11]: -1.3
Cc1ccc(N)cc1 |  |  |  |  |  | 1.71 | pKa [15]: 0; log%Abs (Small intestine): 1.77; pKa (physchem [16]): 1.5
c1ccc(CC2=NCCN2)cc1 [TOLAZOLINE] |  |  |  |  | -2.35 | 0.6 | pKa [15]: 5; log%Abs (Small intestine): 0.78; logP (physchem [9]): 2.65; pKa (physchem [16]): 3.5
CCCC(C)C1(CC)C(=O)NC(=S)NC1=O (stereo not given) [THIOPENTAL] |  |  |  |  | 2.44 | 1.7 | logP (physchem [9]): 2.5; pKa (physchem [16]): 0.8
Nc1ccc([N+](=O)[O-])cc1 [4-NITROANILINE] |  |  |  |  |  | 1.7 | log%Abs (Small intestine): 1.83
O=C(O)c1ccccc1 [BENZOIC ACID] |  |  |  |  |  | 1.28 | 
O=C(O)c1cc([N+](=O)[O-])cc([N+](=O)[O-])c1O [3,5-DINITROSALICYLIC ACID] | 1.55 | 0 | 2.21 | 6.25 |  |  | logD [11]: -4.04

SMILES | pKa (physchem [10]) | fold change (FC) (Neuron) | logP (physchem [12]) | pKa (physchem [13]) | logD (physchem [14]) | log%Abs (Colon) | further results
O=C(O)c1cc(Cl)ccc1O [5-CHLOROSALICYLIC ACID] | 2.63 | 1 | 3.02 | 5.17 | -2.15 |  | 
O=C(O)c1cc(Cl)cc(Cl)c1O | 2.3 | 1.48 |  | 5.5 | -1.62 |  | logP [19]: 3.88
O=C(O)c1cc(I)ccc1O | 2.65 | 1.43 | 3.52 | 5.15 | -1.63 |  | 
Cc1c(N(C)C)c(=O)n(-c2ccccc2)n1C [AMINOPYRINE] |  |  |  |  |  | 1.32 | pKa [15]: 0.3; log%Abs (Small intestine): 1.52; pKa (physchem [16]): 1.8
O=C(O)c1cccc(I)c1 | 4 | 0.6 | 3.13 |  |  |  | logD [11]: -0.67
O=C(O)c1cc(Br)cc(Br)c1O | 2.26 | 1.6 | 4.21 | 5.54 | -1.33 |  | 
Cn1c(=O)c2[nH]cnc2n(C)c1=O.O [THEOPHYLLINE] |  |  |  |  | -0.78 |  | log%Abs (Small intestine): 1.46; logP (physchem [9]): -0.78
O=C(O)c1ccc(O)cc1O [2,4-DIHYDROXYBENZOIC ACID] | 4.7 | -1 | 1.6 |  | -1.5 |  | 
CCC(=O)c1ccc(O)cc1 [PAROXYPROPIONE] |  |  |  |  | 1.81 | 1.66 | logP (physchem [9]): 1.85; pKa (physchem [16]): 1
Oc1ccccc1 [PHENOL] |  |  |  |  |  | 1.55 | 
O=[N+]([O-])c1ccccc1O [NITROPHENOLATE] |  |  |  |  | 1.58 | 1.74 | logP (physchem [9]): 1.79; pKa (physchem [16]): 0.2
O=C(O)c1cc(Br)ccc1O | 2.62 | 1.23 | 3.21 | 5.18 | -1.97 |  | 
Cc1ccc(C(=O)O)cc1 [4-METHYLBENZOIC ACID] |  |  |  | 3.44 |  |  | logD [11]: -2.09
COc1ccc(O)c(C(=O)O)c1 | 2.86 | 0.18 | 2.41 | 4.94 | -2.53 |  | 
O=C(O)c1cccc([N+](=O)[O-])c1 | 3.47 | -0.7 | 1.83 | 4.33 |  | 1 | logD [11]: -2.5; logP (physchem [9]): 1.83; pKa (physchem [16]): 3.4
Nc1cccc([N+](=O)[O-])c1 [3-NITROANILINE] |  |  |  |  | 1.37 | 1.68 | pKa [15]: 2.8; log%Abs (Small intestine): 1.89; logP (physchem [9]): 1.37; pKa (physchem [16]): 4.3
CC(C)Cc1cc([N+](=O)[O-])c(O)c([N+](=O)[O-])c1 | 4.3 |  |  |  |  |  | logD [1]: 0.62; logD [2]: -0.38; fold change (FC) [3]: 5.16; fold change (FC) [4]: 4.88; fold change (FC) [5]: 4.71; fold change (FC) [6]: 4.48; logD [7]: 2.52; logD [8]: 1.62; logP (physchem [9]): 3.32
O=[N+]([O-])c1cccc(O)c1 [3-NITRO-PHENOL] |  |  |  |  | 2 | 1.64 | logP (physchem [9]): 2; pKa (physchem [16]): 1.4
O=C(O)c1ccc(I)cc1 | 3.91 | 0.54 | 3.02 | 3.89 |  |  | logD [11]: -0.87
Cc1cc(=O)n(-c2ccccc2)n1C [ANTIPYRINE] |  |  |  |  |  | 1.3 | pKa [15]: 3.9; log%Abs (Small intestine): 1.51; pKa (physchem [16]): 5.4
CN[C@@H](C)[C@H](O)c1ccccc1 [EPHEDRINE] |  |  |  |  |  | 0.95 | log%Abs (Small intestine): 0.85
Cc1cc([N+](=O)[O-])c(O)c([N+](=O)[O-])c1C | 4.2 |  |  |  |  |  | logD [1]: -0.26; logD [2]: -1.26; fold change (FC) [3]: 4.92; fold change (FC) [4]: 4.51; fold change (FC) [5]: 4.36; fold change (FC) [6]: 3.95; logD [7]: 1.64; logD [8]: 0.74; logP (physchem [9]): 2.54
O=C(O)c1cc([N+](=O)[O-])ccc1O | 2.32 | 0 | 2.21 | 5.48 | -3.27 | 0.3 | logP (physchem [9]): 1.98; pKa (physchem [16]): 4.5
O=[N+]([O-])c1ccc(O)cc1 [P-NITROPHENOL] |  |  |  |  |  |  | logD [1]: 1.66; logD [2]: 0.96; fold change (FC) [3]: 3.3; fold change (FC) [4]: 3.37; fold change (FC) [5]: 3.51; fold change (FC) [6]: 3.39; logD [7]: 1.96; logD [8]: 1.96; logP (physchem [9]): 1.96
